Data from PubChem BioAssay (NCI).
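96-well plates; 48 h exposure; 5 concentrations. Endpoints by linear interpolation between flanking doses. Not reached: highest tested concentration assigned. Here, GI50 denotes the concentration required for 50% inhibition of growth. TGI: concentration producing complete growth inhibition.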

Key:
Assay in all cases: DTP human tumour cell line panel, 48 h
A498 renal = test system: A498 renal
CCRF-CEM leukemia = test system: CCRF-CEM leukemia
COLO 205 colon = test system: COLO 205 colon
HCT-116 colon = test system: HCT-116 colon
HCT-15 colon = test system: HCT-15 colon
HL-60(TB) leukemia = test system: HL-60(TB) leukemia
KM12 colon = test system: KM12 colon
M14 melanoma = test system: M14 melanoma
MALME-3M melanoma = test system: MALME-3M melanoma
MCF7 breast = test system: MCF7 breast
OVCAR-5 ovarian = test system: OVCAR-5 ovarian
OVCAR-8 ovarian = test system: OVCAR-8 ovarian
SK-MEL-2 melanoma = test system: SK-MEL-2 melanoma
SN12C renal = test system: SN12C renal
SW-620 colon = test system: SW-620 colon
TK-10 renal = test system: TK-10 renal
UACC-62 melanoma = test system: UACC-62 melanoma
UO-31 renal = test system: UO-31 renal
HOP-92 NSCLC = test system: HOP-92 NSCLC

Compound `CC(C)(CCCCC(C)(C)NC1=NCCO1)NC1=NCCO1` has a TGI (A498 renal) greater than 10 µM, a TGI (CCRF-CEM leukemia) greater than 10 µM and a TGI (COLO 205 colon) greater than 10 µM. For the same compound, the TGI (HCT-116 colon) was greater than 10 µM, the TGI (HCT-15 colon) was greater than 10 µM and the TGI (HL-60(TB) leukemia) was greater than 10 µM. The TGI (KM12 colon) was greater than 10 µM, the TGI (M14 melanoma) was greater than 10 µM and the TGI (MALME-3M melanoma) was greater than 10 µM. It also gave a TGI (MCF7 breast) greater than 10 µM, a TGI (OVCAR-5 ovarian) greater than 10 µM and a TGI (OVCAR-8 ovarian) greater than 10 µM. The TGI (SK-MEL-2 melanoma) was greater than 10 µM, the TGI (SN12C renal) was greater than 10 µM and the TGI (SW-620 colon) was greater than 10 µM. The TGI (TK-10 renal) was greater than 10 µM, the TGI (UACC-62 melanoma) was greater than 10 µM and the TGI (UO-31 renal) was greater than 10 µM.

In the case of `O=c1c2ccccc2nc2n1CCc1c-2[nH]c2ccccc12`, the GI50 (CCRF-CEM leukemia) is reported as 18.9 µM, the TGI (CCRF-CEM leukemia) is reported as greater than 100 µM and the TGI (COLO 205 colon) is reported as 37.9 µM. The TGI (HCT-116 colon) was 31.3 µM, the TGI (HL-60(TB) leukemia) was greater than 100 µM and the TGI (HOP-92 NSCLC) was 31 µM. For the same compound, the TGI (M14 melanoma) was 32 µM, the TGI (MALME-3M melanoma) was 73.7 µM and the TGI (OVCAR-5 ovarian) was 31.2 µM. It also gave a TGI (OVCAR-8 ovarian) of 71.8 µM, a TGI (SW-620 colon) of 52.9 µM and a TGI (TK-10 renal) of 63.5 µM. For the same compound, the TGI (UO-31 renal) was 28.1 µM.

For `O=c1c(-c2ccccc2)c(SCCCN2CCCCC2)n(-c2ccccc2)c(=S)n1-c1ccccc1`, the TGI (A498 renal) was 29 µM, the TGI (CCRF-CEM leukemia) was 50.9 µM and the TGI (COLO 205 colon) was 36.8 µM. The TGI (HCT-15 colon) was 38.7 µM, the TGI (HL-60(TB) leukemia) was 38.6 µM and the TGI (HOP-92 NSCLC) was 30.1 µM. The TGI (KM12 colon) was 41.6 µM, the TGI (MALME-3M melanoma) was 37.7 µM and the TGI (MCF7 breast) was 31.4 µM. It also gave a TGI (OVCAR-5 ovarian) greater than 100 µM, a TGI (OVCAR-8 ovarian) of 37.9 µM and a TGI (SK-MEL-2 melanoma) of 30.3 µM. The TGI (SW-620 colon) was 41.9 µM, the TGI (TK-10 renal) was 37.3 µM and the TGI (UACC-62 melanoma) was 30.1 µM.

Work on `O=c1[nH]c2ccccc2c2oc3ccccc3c12` yielded a TGI (A498 renal) greater than 100 µM, a TGI (CCRF-CEM leukemia) greater than 100 µM and a TGI (COLO 205 colon) greater than 100 µM. The TGI (HCT-15 colon) was greater than 100 µM, the TGI (HOP-92 NSCLC) was greater than 100 µM and the TGI (KM12 colon) was greater than 100 µM. It also gave a TGI (M14 melanoma) greater than 100 µM, a TGI (MALME-3M melanoma) greater than 100 µM and a TGI (MCF7 breast) greater than 100 µM. The TGI (OVCAR-8 ovarian) was greater than 100 µM, the TGI (SN12C renal) was greater than 100 µM and the TGI (SW-620 colon) was greater than 100 µM. For the same compound, the TGI (TK-10 renal) was greater than 100 µM, the TGI (UACC-62 melanoma) was greater than 100 µM and the TGI (UO-31 renal) was greater than 100 µM.

In the case of `COC(=O)C1=C(O)C(C(=O)OC)[C@@]2(O)[C@@H](C(=O)OC)[C@H](C)C[C@@H]1[C@@H]2C(=O)OC` (stereo partly specified), the TGI (A498 renal) is reported as 44.3 µM, the TGI (CCRF-CEM leukemia) is reported as greater than 100 µM and the TGI (HCT-116 colon) is reported as greater than 100 µM. The TGI (HCT-15 colon) was 92.6 µM, the TGI (HL-60(TB) leukemia) was 73.8 µM and the TGI (KM12 colon) was 58.1 µM. It also gave a TGI (M14 melanoma) of 39.9 µM, a TGI (MALME-3M melanoma) greater than 100 µM and a TGI (MCF7 breast) greater than 100 µM. It also gave a TGI (OVCAR-5 ovarian) of 98.9 µM, a TGI (SK-MEL-2 melanoma) of 58.9 µM and a TGI (SN12C renal) greater than 100 µM. The TGI (TK-10 renal) was greater than 100 µM, the TGI (UACC-62 melanoma) was greater than 100 µM and the TGI (UO-31 renal) was 67.6 µM.
